Experiments:
Type in all cases: in vitro ADME
[1] = biological target: T1, CYP3A4 (Homo sapiens, UniProt P08684); experiment: Oxidation by recombinant human CYP3A4; conditions: for Percentage of oxidation (unchanged drug disappearance) by CYP3A4: 100 pmol/mL, 5 μmol/L, 30 min, NADPH
T1 construct: purchased BD Gentest (Woburn, MA); host or cells: baculovirus-infected insect cells
From the text: (§1) Recombinant human CYPs (Supersomes™; BD Gentes, Woburn, MA: CYP1A1, CYP1A2, CYP2A6, CYP2B6, CYP2C8, CYP2C9, CYP2C18, CYP2C19, CYP2D6, CYP2E1, CYP3A4 and CYP3A5), FMOs (Supersomes™: FMO1, FMO3, FMO5), MAOs (Supersomes™: MAO-A and MAO-B), and UGTs (Supersomes™: UGT1A1, UGT1A3, UGT1A4, UGT1A6, UGT1A7, UGT1A8, UGT1A9, UGT1A10, UGT2B4, UGT2B7, UGT2B15, and UGT2B17) expressed in baculovirus-infected insect cells and control microsomes from insect cells infected with wild-type baculovirus were all obtained from BD Gentest (Woburn, MA).
(§2) For oxidative pathways, the assay mixture was composed of human liver microsomes (1 mg·m·L^−1) or microsomes of baculovirus-infected cells expressing human enzymes (100 pmol·mL^−1 for CYPs and 1 mg·mL^−1 for FMOs and MAOs), nicotinamide adenine dinucleotide phosphate reduced form (NADPH) (1 mmol/L), 100 mmol/L potassium phosphate (pH 7.4), and 5 μmol/L of the investigated compound dissolved in DMSO in a final volume of 500 μL.
The final concentration of DMSO in the reaction mixture was less than 1% (v/v). Initial rate conditions with respect to time and protein concentration for both the disappearance of unchanged drug and the formation of respective metabolites were established in preliminary studies. […]
(§3) In human liver microsomes and recombinant isoforms, the percentage of metabolism was determined on the basis of unchanged drug disappearance, using the following equation [drawing 1] where UDt = 30 min represents the unchanged drug peak area after a 30-min incubation period and UDt = 0, the unchanged drug peak area at t = 0. […]
(§4) Figure 5 Contribution of individual CYPs, FMOs and MAOs to the oxidation of dronedarone and its metabolites. […] Unchanged drugs were quantified by LC/MS-MS relative to the synthetic references as described in Materials and Methods. Data are expressed as the percentage of oxidation.

[2] = biological target: T2, CYP3A5 (Homo sapiens, UniProt P20815); experiment: Oxidation by recombinant human CYP3A5
T2 construct: purchased BD Gentest (Woburn, MA); host or cells: baculovirus-infected insect cells
From the text: as §1, with “MA). […]” for “MA).”
as §3, §4

[3] = biological target: T3, CYP2D6 (Homo sapiens, UniProt P10635); experiment: Oxidation by recombinant human CYP2D6; conditions: for Percentage of oxidation (unchanged drug disappearance) by CYP2D6: 100 pmol/mL, 5 μmol/L, 30 min, NADPH
T3 construct: purchased BD Gentest (Woburn, MA); host or cells: baculovirus-infected insect cells
From the text: as §1, §2
The final concentration of DMSO in the reaction mixture was less than 1% (v/v). Initial rate conditions with respect to time and protein concentration for both the disappearance of unchanged drug and the formation of respective metabolites were established in preliminary studies. The enzyme reaction was initiated by addition of NADPH (10 mmol/L aqueous solution) to achieve a final concentration of 1 mmol/L for oxidative CYP- and FMO-dependent reactions or by the drug for MAO-dependent reactions, incubated at 37°C and stopped after 0–30 min by addition of one volume of ice-cold acetonitrile.
In human liver microsomes and recombinant isoforms, the percentage of metabolism was determined on the basis of unchanged drug disappearance, using the following equation [drawing 1] where UDt = 30 min represents the unchanged drug peak area after a 30-min incubation period and UDt = 0, the unchanged drug peak area at t = 0.
To identify the specific isoforms that are capable of oxidizing dronedarone and its metabolites, assays were performed using c-DNA-expressed isoforms belonging to CYP- (CYP1A1, -1A2, -2A6, -2B6, -C8, -2C9, -2C18, -2C19, -2D6, -2E1, -3A4, and -3A5), FMO- (FMO-1, -3, and -5) and MAO- (MAO-A and MAO-B) families.
as §4

[4] = biological target: T4, CYP1A1 (Homo sapiens, UniProt P04798); experiment: Oxidation by recombinant human CYP1A1; conditions: 100 pmol/mL, 5 μmol/L, 30 min, NADPH
T4 construct: purchased BD Gentest (Woburn, MA); host or cells: baculovirus-infected insect cells
From the text: as §1, with “MA). […]” for “MA).”
as §3, §4

[5] = Glucuronidation by human hepatic microsomal fractions with UDPGA; conditions: 5 μmol/L; for Metabolism in the presence of UDPGA: UDPGA as cofactor
Description: Human hepatic microsomal fractions were obtained from a large pool of human liver (150 individuals) prepared by BD Gentest-Biosciences (BD UltraPool™ HLM 150 – catalogue reference, 452118 Easy Count Box, Woburn, MA). This pooled human liver microsomal batch was also validated internally by the use of FDA-recommended CYP probes (FDA guidance for Industry, draft guidance February 2012).
For glucuronidation pathways, the assay mixture was composed of human liver microsomes (2 mg·mL^−1) or microsomes of baculovirus-infected cells expressing human UGTs (1 mg·mL^−1), uridine 5′-diphosphoglucuronic acid (UDPGA) (3 mmol/L), 100 mmol/L Tris HCl (pH 7.4) containing 5 mmol/L MgCl2 and 5 μmol/L of the investigated compound dissolved in DMSO in a final volume of 500 μL. The final concentration of DMSO in the reaction mixture was less than 1% (v/v). Initial rate conditions with respect to time and protein concentration for both the disappearance of unchanged drug and the formation of respective metabolites were established in preliminary studies. The microsomal mixture was first incubated for 10 min at 4°C in the presence of alamethicin (0.125 mg·mL^−1), then the reaction was initiated by addition of UDPGA (30 mmol/L aqueous solution) to achieve a final concentration of 3 mmol/L for UGT-dependent reactions, incubated at 37°C and stopped after 0–30 min by addition of one volume of ice-cold acetonitrile.
After removal of the proteins by centrifugation at 10,000 rpm for 10 min, a portion of the supernatant was analyzed by LC-UV-MS.
Since a N-glucuronidation process could not be excluded, and because some of the metabolites bear either, a free hydroxyl group or carboxylic acid function, glucuronidation of dronedarone and its potential metabolites was also investigated in human hepatic microsomal fractions in the presence of UDPGA as cofactor. Only propanoic acid-dronedarone and phenol-dronedarone were metabolized in the presence of UDPGA.
Figure 6 Quantitative glucuronidation of propanoic acid-dronedarone (A) and phenol-dronedarone (B) during a 30-min incubation of human hepatic microsomal fractions (1 mg/mL final concentration) with 5 μmol/L unchanged drug in the presence of UDPGA. The kinetics of propanoic acid-dronedarone disappearance (○-○), phenol-dronedarone disappearance and their respective glucuronide formation (●-●, dashed line) were recorded over 30 min. Propanoic acid-dronedarone and phenol-dronedarone were quantified by LC/MS-MS relative to the synthetic references, while the peak area of their respective identified glucuronide was expressed in arbitrary units (×10^3), as described in Materials and Methods.

[6] = 5 μmol/L dronedarone, end of 30-min incubation

T3 sequence (P10635 whole entry): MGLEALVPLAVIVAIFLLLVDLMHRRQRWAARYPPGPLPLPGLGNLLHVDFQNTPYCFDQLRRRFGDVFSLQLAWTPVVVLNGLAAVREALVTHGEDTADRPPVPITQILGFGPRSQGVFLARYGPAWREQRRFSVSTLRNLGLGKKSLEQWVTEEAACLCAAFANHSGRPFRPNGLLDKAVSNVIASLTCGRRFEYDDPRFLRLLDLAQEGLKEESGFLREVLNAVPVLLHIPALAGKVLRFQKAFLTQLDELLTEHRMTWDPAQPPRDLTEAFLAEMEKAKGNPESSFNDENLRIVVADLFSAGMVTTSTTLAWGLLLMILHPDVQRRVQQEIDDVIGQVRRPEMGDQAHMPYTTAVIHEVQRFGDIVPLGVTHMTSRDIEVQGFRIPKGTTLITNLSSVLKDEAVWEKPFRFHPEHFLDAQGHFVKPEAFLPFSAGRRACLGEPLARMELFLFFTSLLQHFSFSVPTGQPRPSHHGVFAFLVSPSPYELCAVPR
T1 sequence (P08684 whole entry): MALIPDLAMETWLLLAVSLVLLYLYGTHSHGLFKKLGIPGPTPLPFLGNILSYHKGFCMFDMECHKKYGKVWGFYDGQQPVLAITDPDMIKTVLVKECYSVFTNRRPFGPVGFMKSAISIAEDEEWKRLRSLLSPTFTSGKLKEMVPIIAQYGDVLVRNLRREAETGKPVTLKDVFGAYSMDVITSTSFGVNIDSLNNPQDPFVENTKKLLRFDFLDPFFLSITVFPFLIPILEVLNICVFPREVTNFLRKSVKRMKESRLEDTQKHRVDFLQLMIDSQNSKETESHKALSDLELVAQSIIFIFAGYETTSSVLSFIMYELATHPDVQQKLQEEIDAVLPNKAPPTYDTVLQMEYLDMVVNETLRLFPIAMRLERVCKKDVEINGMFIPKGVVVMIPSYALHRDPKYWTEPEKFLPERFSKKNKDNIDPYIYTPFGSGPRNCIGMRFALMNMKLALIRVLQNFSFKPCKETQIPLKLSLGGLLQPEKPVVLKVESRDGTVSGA
T4 sequence (P04798 whole entry): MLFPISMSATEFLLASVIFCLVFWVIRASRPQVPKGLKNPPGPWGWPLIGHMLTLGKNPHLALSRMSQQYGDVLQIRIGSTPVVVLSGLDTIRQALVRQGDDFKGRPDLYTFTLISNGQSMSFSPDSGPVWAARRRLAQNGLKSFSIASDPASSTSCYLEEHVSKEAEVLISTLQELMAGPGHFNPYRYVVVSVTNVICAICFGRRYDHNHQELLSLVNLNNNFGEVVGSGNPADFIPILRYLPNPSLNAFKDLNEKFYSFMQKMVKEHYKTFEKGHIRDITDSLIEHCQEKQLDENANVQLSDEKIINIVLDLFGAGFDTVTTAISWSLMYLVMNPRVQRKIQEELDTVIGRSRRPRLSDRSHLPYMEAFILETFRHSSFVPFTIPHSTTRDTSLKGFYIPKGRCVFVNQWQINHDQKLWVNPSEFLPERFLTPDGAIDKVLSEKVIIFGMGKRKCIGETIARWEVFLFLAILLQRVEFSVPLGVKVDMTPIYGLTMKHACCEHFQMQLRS
T2 sequence (P20815 whole entry): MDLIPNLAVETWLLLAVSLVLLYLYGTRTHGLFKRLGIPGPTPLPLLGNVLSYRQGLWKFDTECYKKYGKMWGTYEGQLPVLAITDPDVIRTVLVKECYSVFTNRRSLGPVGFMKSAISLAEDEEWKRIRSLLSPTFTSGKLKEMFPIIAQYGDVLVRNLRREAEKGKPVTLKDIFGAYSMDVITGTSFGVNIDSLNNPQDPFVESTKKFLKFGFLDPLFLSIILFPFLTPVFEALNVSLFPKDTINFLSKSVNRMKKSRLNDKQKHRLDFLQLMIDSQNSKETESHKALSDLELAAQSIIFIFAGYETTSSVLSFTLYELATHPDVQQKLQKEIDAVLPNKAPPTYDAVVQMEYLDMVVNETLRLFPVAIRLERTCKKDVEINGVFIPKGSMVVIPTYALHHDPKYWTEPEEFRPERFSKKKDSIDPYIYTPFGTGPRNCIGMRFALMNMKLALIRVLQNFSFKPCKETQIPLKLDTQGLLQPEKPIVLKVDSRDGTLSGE

Percentage of oxidation (unchanged drug disappearance) by CYP3A4 [1] [%]	Percentage of oxidation (unchanged drug disappearance) by CYP3A5 ([2]; 100 pmol/mL, 5 μmol/L, 30 min, NADPH) [%]	Percentage of oxidation (unchanged drug disappearance) by CYP2D6 [3] [%]	Metabolite formed, as percent of initial dronedarone concentration, with CYP3A4 [1, 6] [%]	Metabolite formed, as percent of initial dronedarone concentration, with CYP3A5 [2, 6] [%]	Metabolite formed, as percent of initial dronedarone concentration, with CYP2D6 [3, 6]	Percentage of oxidation (unchanged drug disappearance) by CYP1A1 [4] [%]	Metabolism in the presence of UDPGA [5]	Initial drug metabolized ([5]; UDPGA, in 10 min)	Unchanged drug remaining, percent of initial concentration ([5]; UDPGA, 30th minute of incubation) [%]	Compound
94	90	50	–	–	–	–	–	–	–	CCCCc1oc2ccc(NS(C)(=O)=O)cc2c1C(=O)c1ccc(OCCCN(CCCC)CCCC)cc1.Cl [Dronedarone, N-(2-Butyl-3-(4-(3-(dibutylamino)propoxy)benzoyl)-5-benzofuranyl)methanesulfonamide, hydrochloride]
21	–	55	60	50	less than 1%	–	–	–	–	CCCCNCCCOc1ccc(C(=O)c2c(CCCC)oc3ccc(NS(C)(=O)=O)cc23)cc1 [N-debutyl-dronedarone]
–	–	94	–	–	–	99	metabolized	more than 70%	–	CCCCc1oc2ccc(NS(C)(=O)=O)cc2c1C(=O)c1ccc(O)cc1 [Phenol-dronedarone]
–	–	–	–	–	–	59	metabolized	–	70	CCCCc1oc2ccc(NS(C)(=O)=O)cc2c1C(=O)c1ccc(OCCC(=O)O)cc1 [Propanoic acid-dronedarone]
